From patent US20240301409A1, “Chemically Modified Small Activating RNA” (RACTIGEN THERAPEUTICS, priority 2021, published 2024)

System: T24 cells
Test: Cellular proliferation assay (CCK8) in T24 cells, alone and combined with Mitomycin C or valrubicin
Type: cell-based, human
How it was run: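 Cells transfected with saRNA RAG1-40-31 (0.1–50 nM) for 24 h, then Mitomycin C or valrubicin (1–10000 nM) added in paired concentrations; single-agent saRNA at 10 nM for 72 h. Viability by CCK8 absorbance at 450 nm after 1 h at 37 °C, as % of blank transfection control.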

## RAG1-40-31: saRNA duplex: sense fCfCAACUCAUUCUCCAAG*U*C (SEQ ID NO 16); antisense U*A*fCfUfUGGAGAAfUGAGfUfUGG*fC*A (SEQ ID NO 12) (sense CCAACUCAUUCUCCAAGUC; antisense UACUUGGAGAAUGAGUUGGCA; 2'-F and phosphorothioate modifications; modified_base (1)..(2) (1,2)=2′-fluoro; modified_base (17)..(19) (17,18,19)=phosphorothioate (PS) backbone modification; modified_base (2)..(21) (2,3,19,20,21)=phosphorothioate (PS) backbone modification; modified_base (3)..(20) (3,4,5,12,16,17,20)=2′-fluoro)
RAG1-40-31 50 nM + valrubicin 1000 nm
  Relative proliferation proportion of T24 cells: 10.9%
RAG1-40-31 50 nM + valrubicin 10000 nm
  Relative proliferation proportion of T24 cells: 3.1%
RAG1-40-31 50 nM, Control (no MMC)
  Relative proliferation proportion of T24 cells: 14.7%
RAG1-40-31 50 nM, Control (no valrubicin)
  Relative proliferation proportion of T24 cells: 13.8%
T24 cells, RAG1-40-31 0.1 nM + MMC 1 nM
  Combination Index (CI): 0.42
T24 cells, RAG1-40-31 0.1 nM + MMC 10 nM
  Combination Index (CI): 1.59
T24 cells, RAG1-40-31 0.1 nM + MMC 100 nM
  Combination Index (CI): 0.64
T24 cells, RAG1-40-31 0.1 nM + MMC 1000 nM
  Combination Index (CI): 0.49
T24 cells, RAG1-40-31 0.1 nM + MMC 10000 nM
  Combination Index (CI): 1.05
T24 cells, RAG1-40-31 0.1 nM + Valrubicin 10000 nM
  Combination Index (CI): 0.38
T24 cells, RAG1-40-31 0.1 nM + valrubicin 1 nM
  Combination Index (CI): 1.9
T24 cells, RAG1-40-31 0.1 nM + valrubicin 10 nM
  Combination Index (CI): 17.16
T24 cells, RAG1-40-31 0.1 nM + valrubicin 100 nM
  Combination Index (CI): 11.04
T24 cells, RAG1-40-31 0.1 nM + valrubicin 1000 nM
  Combination Index (CI): 1.48
T24 cells, RAG1-40-31 0.5 nM + MMC 1 nM
  Combination Index (CI): 0.97
T24 cells, RAG1-40-31 0.5 nM + MMC 10 nM
  Combination Index (CI): 1.40
T24 cells, RAG1-40-31 0.5 nM + MMC 100 nM
  Combination Index (CI): 0.67
T24 cells, RAG1-40-31 0.5 nM + MMC 1000 nM
  Combination Index (CI): 0.46
T24 cells, RAG1-40-31 0.5 nM + MMC 10000 nM
  Combination Index (CI): 1.06
T24 cells, RAG1-40-31 0.5 nM + Valrubicin 10000 nM
  Combination Index (CI): 0.4
T24 cells, RAG1-40-31 0.5 nM + valrubicin 1 nM
  Combination Index (CI): 2.71
T24 cells, RAG1-40-31 0.5 nM + valrubicin 10 nM
  Combination Index (CI): 6.02
T24 cells, RAG1-40-31 0.5 nM + valrubicin 100 nM
  Combination Index (CI): 8.68
T24 cells, RAG1-40-31 0.5 nM + valrubicin 1000 nM
  Combination Index (CI): 0.92
T24 cells, RAG1-40-31 1 nM + MMC 1 nM
  Combination Index (CI): 0.96
T24 cells, RAG1-40-31 1 nM + MMC 10 nM
  Combination Index (CI): 0.88
T24 cells, RAG1-40-31 1 nM + MMC 100 nM
  Combination Index (CI): 0.69
T24 cells, RAG1-40-31 1 nM + MMC 1000 nM
  Combination Index (CI): 0.41
T24 cells, RAG1-40-31 1 nM + MMC 10000 nM
  Combination Index (CI): 0.84
T24 cells, RAG1-40-31 1 nM + Valrubicin 10000 nM
  Combination Index (CI): 0.33
T24 cells, RAG1-40-31 1 nM + valrubicin 1 nM
  Combination Index (CI): 1.23
T24 cells, RAG1-40-31 1 nM + valrubicin 10 nM
  Combination Index (CI): 0.92
T24 cells, RAG1-40-31 1 nM + valrubicin 100 nM
  Combination Index (CI): 1.02
T24 cells, RAG1-40-31 1 nM + valrubicin 1000 nM
  Combination Index (CI): 0.93
T24 cells, RAG1-40-31 5 nM + MMC 1 nM
  Combination Index (CI): 0.61
T24 cells, RAG1-40-31 5 nM + MMC 10 nM
  Combination Index (CI): 0.60
T24 cells, RAG1-40-31 5 nM + MMC 100 nM
  Combination Index (CI): 0.45
T24 cells, RAG1-40-31 5 nM + MMC 1000 nM
  Combination Index (CI): 0.24
T24 cells, RAG1-40-31 5 nM + MMC 10000 nM
  Combination Index (CI): 0.46
T24 cells, RAG1-40-31 5 nM + Valrubicin 10000 nM
  Combination Index (CI): 0.12
T24 cells, RAG1-40-31 5 nM + valrubicin 1 nM
  Combination Index (CI): 0.73
T24 cells, RAG1-40-31 5 nM + valrubicin 10 nM
  Combination Index (CI): 0.59
T24 cells, RAG1-40-31 5 nM + valrubicin 100 nM
  Combination Index (CI): 0.99
T24 cells, RAG1-40-31 5 nM + valrubicin 1000 nM
  Combination Index (CI): 0.47
T24 cells, RAG1-40-31 10 nM + MMC 1 nM
  Combination Index (CI): 0.52
T24 cells, RAG1-40-31 10 nM + MMC 10 nM
  Combination Index (CI): 0.77
T24 cells, RAG1-40-31 10 nM + MMC 100 nM
  Combination Index (CI): 0.47
T24 cells, RAG1-40-31 10 nM + MMC 1000 nM
  Combination Index (CI): 0.19
T24 cells, RAG1-40-31 10 nM + MMC 10000 nM
  Combination Index (CI): 0.30
T24 cells, RAG1-40-31 10 nM + Valrubicin 10000 nM
  Combination Index (CI): 0.09
T24 cells, RAG1-40-31 10 nM + valrubicin 1 nM
  Combination Index (CI): 0.82
T24 cells, RAG1-40-31 10 nM + valrubicin 10 nM
  Combination Index (CI): 0.62
T24 cells, RAG1-40-31 10 nM + valrubicin 100 nM
  Combination Index (CI): 0.83
T24 cells, RAG1-40-31 10 nM + valrubicin 1000 nM
  Combination Index (CI): 0.63
T24 cells, RAG1-40-31 25 nM + MMC 1 nM
  Combination Index (CI): 0.92
T24 cells, RAG1-40-31 25 nM + MMC 10 nM
  Combination Index (CI): 1.38
T24 cells, RAG1-40-31 25 nM + MMC 100 nM
  Combination Index (CI): 0.73
T24 cells, RAG1-40-31 25 nM + MMC 1000 nM
  Combination Index (CI): 0.28
T24 cells, RAG1-40-31 25 nM + MMC 10000 nM
  Combination Index (CI): 0.36
T24 cells, RAG1-40-31 25 nM + Valrubicin 10000 nM
  Combination Index (CI): 0.1
T24 cells, RAG1-40-31 25 nM + valrubicin 1 nM
  Combination Index (CI): 0.97
T24 cells, RAG1-40-31 25 nM + valrubicin 10 nM
  Combination Index (CI): 1.25
T24 cells, RAG1-40-31 25 nM + valrubicin 100 nM
  Combination Index (CI): 1.25
T24 cells, RAG1-40-31 25 nM + valrubicin 1000 nM
  Combination Index (CI): 0.67
T24 cells, RAG1-40-31 25 nM and 50 nM + Mitomycin C 1, 10, 100, 1000 and 10000 nM
  relative proliferation proportions of cells: lower than 21%
T24 cells, RAG1-40-31 25 nM and 50 nM + valrubicin 1, 10, 100, 1000 and 10000 nM
  relative proliferation proportion of cells: lower than 21%
T24 cells, RAG1-40-31 50 nM + MMC 1 nM
  Combination Index (CI): 2.59
T24 cells, RAG1-40-31 50 nM + MMC 10 nM
  Combination Index (CI): 2.60
T24 cells, RAG1-40-31 50 nM + MMC 100 nM
  Combination Index (CI): 1.31
T24 cells, RAG1-40-31 50 nM + MMC 1000 nM
  Combination Index (CI): 0.50
T24 cells, RAG1-40-31 50 nM + MMC 10000 nM
  Combination Index (CI): 0.47
T24 cells, RAG1-40-31 50 nM + Valrubicin 10000 nM
  Combination Index (CI): 0.19
T24 cells, RAG1-40-31 50 nM + valrubicin 1 nM
  Combination Index (CI): 2.12
T24 cells, RAG1-40-31 50 nM + valrubicin 10 nM
  Combination Index (CI): 2.3
T24 cells, RAG1-40-31 50 nM + valrubicin 100 nM
  Combination Index (CI): 2.3
T24 cells, RAG1-40-31 50 nM + valrubicin 1000 nM
  Combination Index (CI): 1.04
T24 cells, RAG1-40-31 0.1-50 nM + Mitomycin C 1000 and 10000 nM
  relative proliferation proportions of cells: lower than 18%
T24 cells, RAG1-40-31 0.1-50 nM + valrubicin 1000 nM and 10000 nM
  relative proliferation proportions of cells: lower than 60%
T24 cells, RAG1-40-31 5-50 nM + Mitomycin C 1, 10, 100, 1000 and 10000 nM
  relative proliferation proportions of cells: lower than 40%
T24 cells, RAG1-40-31 5-50 nM + valrubicin 1, 10, 100, 1000 and 10000 nM
  relative proliferation proportions of cells: lower than 40%
T24 tumor cells
  effect of combined use with Mitomycin C or valrubicin, in words: synergistic effect
